Results reported in PubChem BioAssay AID330 (DTP/NCI, 2004).
Several values for one entry are separate records, joined by “and”; a condition that tells them apart may be missing. Identical values can stand only once. Inconclusive results and toxic doses are left out.

Test system: P388 leukemia ip, CD2F1 mice, survival T/C
Assay: NCI In Vivo Anticancer Drug Screen. Data for tumor model P388 Leukemia (intraperitoneal) in CD2F1 (CDF1) mice
Conditions: endpoint: median survival time, higher = longer survival
How it was run: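 Mice carrying the transplanted tumor received test compound or vehicle. Survival was recorded in each group, and the value is the treated-group measurement divided by that of the vehicle-treated control group.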

[1] = dose: 60.0 mg/kg/injection, schedule: Q01DX005 (ip), vehicle: Klucel (hydroxypropylcellulose) (HPC)
[2] = dose: 120.0 mg/kg/injection, schedule: Q01DX005 (ip), vehicle: Klucel (hydroxypropylcellulose) (HPC)
[3] = dose: 240.0 mg/kg/injection, schedule: Q01DX005 (ip), vehicle: Klucel (hydroxypropylcellulose) (HPC)
[4] = dose: 25.0 mg/kg/injection, schedule: Q01DX009 (ip), vehicle: Klucel (hydroxypropylcellulose) (HPC)
[5] = dose: 50.0 mg/kg/injection, schedule: Q01DX009 (ip), vehicle: Klucel (hydroxypropylcellulose) (HPC)
[6] = dose: 50.0 mg/kg/injection, schedule: Q01DX005 (ip), vehicle: Klucel (hydroxypropylcellulose) (HPC)
[7] = dose: 100.0 mg/kg/injection, schedule: Q01DX005 (ip), vehicle: Klucel (hydroxypropylcellulose) (HPC)
[8] = dose: 200.0 mg/kg/injection, schedule: Q01DX005 (ip), vehicle: Klucel (hydroxypropylcellulose) (HPC)
[9] = dose: 50.0 mg/kg/injection, schedule: Q01DX005 (ip), vehicle: saline with Tween-80
[10] = dose: 100.0 mg/kg/injection, schedule: Q01DX005 (ip), vehicle: saline with Tween-80
[11] = dose: 200.0 mg/kg/injection, schedule: Q01DX005 (ip), vehicle: saline with Tween-80
[12] = dose: 25.0 mg/kg/injection, schedule: Q01DX009 (ip), vehicle: saline with Tween-80
[13] = dose: 50.0 mg/kg/injection, schedule: Q01DX009 (ip), vehicle: saline with Tween-80
[14] = dose: 100.0 mg/kg/injection, schedule: Q01DX009 (ip), vehicle: saline with Tween-80
[15] = dose: 200.0 mg/kg/injection, schedule: Q01DX009 (ip), vehicle: saline with Tween-80
[16] = dose: 50.0 mg/kg/injection, schedule: Q01DX005 (ip), vehicle: saline
[17] = dose: 100.0 mg/kg/injection, schedule: Q01DX005 (ip), vehicle: saline
[18] = dose: 200.0 mg/kg/injection, schedule: Q01DX005 (ip), vehicle: saline
[19] = dose: 25.0 mg/kg/injection, schedule: Q01DX005 (ip), vehicle: saline with Tween-80

For `COc1cc(C2c3cc4c(cc3OC(C)(OC)C2C(C)=O)OCO4)cc(OC)c1O` (stereo not given), the T/C (dose: 60.0 mg/kg/injection, schedule: Q01DX005 (ip), vehicle: saline with Tween-80) was 91 % of control, the T/C (dose: 120.0 mg/kg/injection, schedule: Q01DX005 (ip), vehicle: saline with Tween-80) was 95 % of control and the T/C (dose: 240.0 mg/kg/injection, schedule: Q01DX005 (ip), vehicle: saline with Tween-80) was 97 % of control.
`COc1ccc(NC(SC)=C(C#N)C#N)cc1` was tested, and the T/C (dose: 25.0 mg/kg/injection, schedule: Q04DX002 (ip), vehicle: saline with Tween-80) was 99 % of control, the T/C (dose: 50.0 mg/kg/injection, schedule: Q04DX002 (ip), vehicle: saline with Tween-80) was 100 % of control and the T/C (dose: 100.0 mg/kg/injection, schedule: Q04DX002 (ip), vehicle: saline with Tween-80) was 98 % of control.
With `N#Cc1ccc(C(=O)C=C(C(F)(F)F)C(F)(F)F)cc1` the T/C (dose: 3.13 mg/kg/injection, schedule: Q01DX009 (ip), vehicle: other) was 115 % of control and the T/C (dose: 5.56 mg/kg/injection, schedule: Q01DX009 (ip), vehicle: other) was 120 % of control.
For `C=C1C2(O)CCC(C2)C1(C)C` (stereo not given), the T/C [1] was 108 % of control, the T/C [2] was 106 % of control and the T/C [3] was 100 % of control.
With `COc1cccc2c1C(=N)c1c(O)c3c(c(O)c1C2=O)C[C@@](O)(C(=O)CO)C[C@@H]3OC1CC(N)C(O)C(C)O1` (stereo not given in full) the T/C (dose: 1.56 mg/kg/injection, schedule: Q04DX003 (ip), vehicle: water) was 115 % of control, the T/C (dose: 3.13 mg/kg/injection, schedule: Q04DX003 (ip), vehicle: water) was 118 % of control and the T/C (dose: 6.25 mg/kg/injection, schedule: Q04DX003 (ip), vehicle: water) was 122 % of control. The T/C (dose: 25.0 mg/kg/injection, schedule: Q04DX003 (ip), vehicle: water) was 155 % of control and 163 % of control, the T/C (dose: 50.0 mg/kg/injection, schedule: Q04DX003 (ip), vehicle: water) was 173 % of control and 188 % of control and the T/C (dose: 100.0 mg/kg/injection, schedule: Q04DX003 (ip), vehicle: water) was 194 % of control and 217 % of control. The T/C (dose: 150.0 mg/kg/injection, schedule: Q04DX003 (ip), vehicle: water) was 165 % of control.
`C/C(N)=C\C(=S)Nc1ccccc1` was tested, and the T/C (dose: 12.5 mg/kg/injection, schedule: Q01DX009 (ip), vehicle: Klucel (hydroxypropylcellulose) (HPC)) was 100 % of control, the T/C [4] was 106 % of control and the T/C [5] was 104 % of control.
`CC(=O)c1ccc(Cl)c(N=Cc2cc(Br)ccc2O)c1` was tested, and the T/C [6] was 88 % of control, the T/C [7] was 95 % of control and the T/C [8] was 92 % of control.
In the case of `CC(NNC(=S)N1CCCC1)c1ccc2ccccc2n1` (stereo not given), the T/C [9] is reported as 94 % of control, the T/C [10] is reported as 94 % of control and the T/C [11] is reported as 94 % of control.
With `N#CNC(=O)c1ccc(C(=O)NC#N)cc1` the T/C [9] was 98 % of control, the T/C [10] was 98 % of control and the T/C [11] was 90 % of control.
For `O=C(NN1C(=O)C=C(O)/C1=C\c1ccccc1)c1ccccc1`, the T/C (dose: 25.0 mg/kg/injection, schedule: Q01DX005 (ip), vehicle: Klucel (hydroxypropylcellulose) (HPC)) was 99 % of control and 104 % of control, the T/C [6] was 101 % of control and 104 % of control and 111 % of control and the T/C [7] was 103 % of control and 105 % of control (2×). For the same compound, the T/C [8] was 100 % of control and 105 % of control and 121 % of control.
For `O=C1CN(Cc2ccc3c(c2)OCO3)NO1`, the T/C [12] was 111 % of control, the T/C [13] was 104 % of control and 108 % of control and the T/C [14] was 101 % of control. For the same compound, the T/C [15] was 119 % of control and 86 % of control.
With `CC(=O)c1ccccc1N=O` the T/C (dose: 50.0 mg/kg/injection, schedule: Q01DX001 (ip), vehicle: other) was 102 % of control, the T/C (dose: 100.0 mg/kg/injection, schedule: Q01DX001 (ip), vehicle: other) was 101 % of control and 107 % of control and the T/C (dose: 200.0 mg/kg/injection, schedule: Q01DX001 (ip), vehicle: other) was 100 % of control. The T/C (dose: 400.0 mg/kg/injection, schedule: Q01DX001 (ip), vehicle: other) was 102 % of control.
`Nc1nnnn1CCCCO` was tested, and the T/C [16] was 104 % of control, the T/C [17] was 103 % of control and the T/C [18] was 111 % of control. The T/C (dose: 400.0 mg/kg/injection, schedule: Q01DX005 (ip), vehicle: saline) was 120 % of control.
In the case of `C[n+]1c(-c2ccc(/C=N\Nc3nnc(S)n3/N=C/c3ccc(-c4cn5ccccc5[n+]4C)cc3)cc2)cn2ccccc21`, the T/C (dose: 0.23 mg/kg/injection, schedule: Q01DX005 (ip), vehicle: saline with Tween-80) is reported as 101 % of control, the T/C (dose: 0.47 mg/kg/injection, schedule: Q01DX005 (ip), vehicle: saline with Tween-80) is reported as 92 % of control and the T/C (dose: 0.94 mg/kg/injection, schedule: Q01DX005 (ip), vehicle: saline with Tween-80) is reported as 95 % of control. The T/C (dose: 1.88 mg/kg/injection, schedule: Q01DX005 (ip), vehicle: saline with Tween-80) was 100 % of control.
For `OC1(c2ccccc2)c2ccccc2NC2=NCCN21` (stereo not given), the T/C [19] was 105 % of control, the T/C [9] was 96 % of control and the T/C [10] was 104 % of control. For the same compound, the T/C [11] was 97 % of control.
`CC(C)(C)/[N+]([O-])=C/C=C\C=C\C=O` was tested, and the T/C (dose: 50.0 mg/kg/injection, schedule: Q01DX001 (ip), vehicle: Klucel (hydroxypropylcellulose) (HPC)) was 116 % of control, the T/C (dose: 100.0 mg/kg/injection, schedule: Q01DX001 (ip), vehicle: Klucel (hydroxypropylcellulose) (HPC)) was 120 % of control and the T/C (dose: 200.0 mg/kg/injection, schedule: Q01DX001 (ip), vehicle: Klucel (hydroxypropylcellulose) (HPC)) was 122 % of control.
In the case of `CC1=C(Br)C(c2ccccc2)=Nc2ccccc2N1`, the T/C (dose: 12.5 mg/kg/injection, schedule: Q01DX009 (ip), vehicle: saline with Tween-80) is reported as 123 % of control, the T/C [12] is reported as 116 % of control and the T/C (dose: 50.0 mg/kg/injection, schedule: Q01DX009 (ip), vehicle: saline) is reported as 119 % of control. For the same compound, the T/C (dose: 100.0 mg/kg/injection, schedule: Q01DX009 (ip), vehicle: saline) was 110 % of control.
`CO/C(C)=C1/C(=O)O/C(=C/Nc2ccccc2)C1=O` was tested, and the T/C [9] was 107 % of control, the T/C [10] was 107 % of control and the T/C [11] was 96 % of control.
In the case of `Cc1ccc(N(CN2C(=O)CCC2=O)CS(=O)(=O)c2ccc(C)cc2)cc1`, the T/C [1] is reported as 97 % of control, the T/C [2] is reported as 98 % of control and 93 % of control and the T/C [3] is reported as 93 % of control and 96 % of control.
For `O=c1c2ccccc2c(=O)n2n1C1CCC2C1`, the T/C [6] was 96 % of control, the T/C [7] was 110 % of control and the T/C [8] was 100 % of control.
With `CC1=C(C)CN(CCc2c[nH]c3ccccc23)C(C#N)C1` (stereo not given) the T/C (dose: 12.5 mg/kg/injection, schedule: Q01DX005 (ip), vehicle: saline with Tween-80) was 102 % of control, the T/C [19] was 108 % of control and the T/C [9] was 102 % of control and 117 % of control.
With `CC(=O)NC(C=O)C(O)C(O)C(O)C(=O)O` (stereo not given) the T/C [4] was 107 % of control, the T/C [5] was 100 % of control and the T/C (dose: 100.0 mg/kg/injection, schedule: Q01DX009 (ip), vehicle: Klucel (hydroxypropylcellulose) (HPC)) was 107 % of control.
For `CN(CCNCC1CCCN1C)Cc1cccc(Cl)c1` (stereo not given), the T/C [16] was 108 % of control, the T/C [17] was 101 % of control and the T/C [18] was 106 % of control.
`CN(Cc1ccccc1)C(c1ccccc1)C1(c2ccccc2)Cc2ccccc2C(=O)O1` (stereo not given) was tested, and the T/C [6] was 87 % of control, the T/C [7] was 87 % of control and the T/C [8] was 87 % of control.
For `O=c1[nH][nH]c2c1SCc1ccccc1-2`, the T/C [13] was 110 % of control, the T/C [14] was 117 % of control and the T/C [15] was 86 % of control.
For `Nc1ccc(S(=O)(=O)CCCl)cc1`, the T/C (dose: 12.5 mg/kg/injection, schedule: Q04DX003 (ip), vehicle: Klucel (hydroxypropylcellulose) (HPC)) was 96 % of control, the T/C (dose: 25.0 mg/kg/injection, schedule: Q04DX003 (ip), vehicle: Klucel (hydroxypropylcellulose) (HPC)) was 102 % of control and the T/C (dose: 50.0 mg/kg/injection, schedule: Q04DX003 (ip), vehicle: Klucel (hydroxypropylcellulose) (HPC)) was 105 % of control. For the same compound, the T/C (dose: 100.0 mg/kg/injection, schedule: Q04DX003 (ip), vehicle: Klucel (hydroxypropylcellulose) (HPC)) was 107 % of control and the T/C (dose: 200.0 mg/kg/injection, schedule: Q04DX003 (ip), vehicle: Klucel (hydroxypropylcellulose) (HPC)) was 112 % of control.
